Literature values as cited in patent US20240299268A1, “A COMPOSITION FOR CARING FOR KERATIN MATERIALS” (L'OREAL, priority 2021, published 2024).
Read-outs that look alike come from different tables or passages of the source.

## COc1cc(/C=C/C(=O)O)ccc1O [Ferulic acid, 4-Hydroxy-3-methoxycinnamic acid]
Content of ferulic acid no less than 1 wt. %
  time until decarboxylation (loss in stability, unpleasant odor) when contacting with water: 30 days
Content of ferulic acid no less than 1.5 wt. %
  time until decarboxylation (loss in stability, unpleasant odor) when contacting with water: 15 days
Content of ferulic acid no less than 1.9 wt. %
  time until decarboxylation (loss in stability, unpleasant odor) when contacting with water: 7 days
